How the values were obtained:
[1] = test system: Du145 (prostate) cancer cells; assay: MTT growth inhibition assay, Du145; assay type: cell-based; conditions: 72 h, ± standard error, read-out: Growth Inhibition Concentration, GI50
Description: (§1) The Schiff bases and their organotin(IV) compounds were screened for in vitro cytotoxicity against a panel of 12 cancer cell lines: EJ-28 (muscle invasive bladder), RT-112 (minimum-invasive bladder), HT29 (colon), U87 and SJ-G2 (glioblastoma), MCF-7 (breast), A2780 (ovarian), H460 (lung), A431 (skin), DU145 (prostate), BE2-C (neuroblastoma), MIA (pancreatic) and one normal breast cell line (MCF-10A) using the MTT metabolic assay (Figure 6). After 72 h of incubation, a dose-dependent […] effect towards the cancer cell lines was measured at very low micromolar (µM) concentrations of the compounds. The growth inhibition concentration of the Schiff bases and their organotin(IV) compounds required to inhibit 50% cell proliferation relative to the cells that were treated with DMSO (control) are given in Table 2. The stability of these compounds was assessed in DMSO as well as in a mixture of DMSO-H2O. The absorbance obtained from UV-vis spectroscopy analysis was monitored for 72 h, and an unchanged pattern in the spectra was indicative that the compounds were stable in both the solvent systems tested.
(§2) For HT29 (colon), U87 and SJ-G2 (glioblastoma), MCF-7 (breast), A2780 (ovarian), H460 (lung), A431 (skin), Du145 (prostate), BE2-C (neuroblastoma), MIA (pancreas) cell lines and one normal breast cell line, MCF-10A (normal breast), the MTT assays were performed using the following method:
(§3) Stock solutions were prepared as follows and stored at −20 °C: Trial compounds were stored as 10 mM solutions in DMSO. All cell lines were cultured in a humidified atmosphere 5% CO2 at 37 °C. The cancer cell lines were maintained in Dulbecco’s modified Eagle’s medium (DMEM) (Trace Biosciences) supplemented with 10% foetal bovine serum, 10 mM sodium bicarbonate, penicillin (100 IU/mL), streptomycin (100 μg/mL) and glutamine (4 mM). The normal cell line, MCF-10A was cultured in DMEM:F12 (1:1) cell culture media, 5% heat inactivated horse serum, supplemented with penicillin (50 IU/mL), streptomycin (50 μg/mL), 20mM Hepes, L-glutamine (2 mM), epidermal growth factor (20 ng/mL), hydrocortisone (500 ng/mL), cholera toxin (100 ng/mL) and insulin (10 μg/mL).
(§4) Cells in logarithmic growth were transferred to 96-well plates. Cytotoxicity was determined by plating cells in duplicate in 100 μL medium at a density of 2500–4000 cells/well. On day 0 (24 h after plating), when the cells were in logarithmic growth, 100 μL medium, with or without the test agent, was added to each well. After 72 h drug exposure, growth inhibitory effects were evaluated using the MTT (3-[4,5-dimethylthiazol-2-yl]-2,5-diphenyltetrazolium bromide) assay and absorbance read at 540 nm. Percentage growth inhibition was determined at a fixed drug concentration of 25 μM. A value of 100% was indicative of complete cell growth inhibition. Those analogues showing appreciable percentage growth inhibition underwent further dose-response analysis allowing for the calculation of a GI50 value. This value is the drug concentration at which cell growth is 50% inhibited based on the difference between the optical density values on day 0 and those at the end of drug exposure.

[2] = test system: HT29 (colon) cancer cells; assay: MTT growth inhibition assay, HT29; assay type: cell-based; conditions: 72 h, ± standard error, read-out: Growth Inhibition Concentration, GI50
Description: as §1, §2, §3, §4

[3] = test system: RT-112 (minimum-invasive bladder) cancer cells; assay: MTT cytotoxicity assay, RT-112; assay type: cell-based, human; conditions: RT-112 cells, 72 h, ± standard error, read-out: Growth Inhibition Concentration, GI50
Description: as §1
The inhibitory effect of the synthesised compounds on the growth of bladder (EJ-28 and RT-112) cancer cells was evaluated by MTT assay. […] RT-112 and EJ-28, human bladder cancer cell lines used in this study (ATCC, Manassas, VA, USA) were cultured in RPMI-1640 (High glucose) medium supplemented with 10% fetal bovine serum containing 1% penicillin. The cells were cultured at 37 °C in a humidified atmosphere of 5% CO2 in air. Cells were seeded in 96-well plates at 6000 cells per well for 24 h, then they were treated with different concentrations of compounds for 72 h. The medium was subsequently removed and the wells were washed with 200 µL of phosphate buffer saline. Aliquots of 20 µL of 3-(4,5-dimethylthiazol-2-yl)-2,5-diphenyltetrazolium bromide (MTT) was added to each well and incubated for 4 h at 37 °C. Aliquots of 200 µL of media was then removed from each well and 200 µL of DMSO was added. Optical density (OD) was measured using an ELISA plate reader at 570 nm. Control wells (100% viability), containing media and DMSO, were included in all the experiments. All data points represented an average of triplicate assays. Cytotoxicity was expressed as CD50, i.e., the concentration that reduced the absorbance of treated cells by 50% with reference to the control (untreated cells).

Row | Substance | GI50 [1] [nM] | GI50 [2] [nM] | GI50 [3] [nM]
1 | Diphenyltin(IV) [Ph2Sn(S4MoVa), Diphenyltin(IV) [S-4-Methybenzyl-β-N-(2-hydroxy-3-methoxybenzylmethylene) dithiocarbazate]] | 1500 ± 310 | 870 ± 220 | 1700 ± 490
2 | Diphenyltin(IV) [Ph2Sn(S2MoVa), Diphenyltin(IV) [S-2-Methybenzyl-β-N-(2-hydroxy-3-methoxybenzylmethylene) dithiocarbazate]] | 1700 ± 70 | 1800 ± 130 | 310 ± 50

Source: paper PMC6413231, “o-Vanillin Derived Schiff Bases and Their Organotin(IV) Compounds: Synthesis, Structural Characterisation, In-Silico Studies and Cytotoxicity” (International Journal of Molecular Sciences, 2019)
